The values below come from PubChem BioAssay AID256 (DTP/NCI, 2004).

The subject of the assay is CD2F1 mice, L1210 leukemia ip, survival T/C. The assay is described as follows: NCI In Vivo Anticancer Drug Screen. Data for tumor model L1210 Leukemia (intraperitoneal) in CD2F1 (CDF1) mice. As to conditions: higher = longer survival. The method, boiled down:
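Vehicle-treated tumor-bearing mice served as controls (C) for compound-treated mice (T). Reported figure is T divided by C.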

The mark [1] stands for this setting: endpoint: mean survival time, dose: 25.0 mg/kg/injection, schedule: Q04DX003 (ip), vehicle: saline with Tween-80.
[2] abbreviates: endpoint: mean survival time, dose: 100.0 mg/kg/injection, schedule: Q01DX009 (ip), vehicle: saline with Tween-80.
The mark [3] stands for this setting: endpoint: mean survival time, dose: 100.0 mg/kg/injection, schedule: Q04DX003 (ip), vehicle: saline with Tween-80.
The mark [4] stands for this setting: endpoint: mean survival time, dose: 200.0 mg/kg/injection, schedule: Q01DX009 (ip), vehicle: saline with Tween-80.
Setting [5] is: endpoint: mean survival time, dose: 200.0 mg/kg/injection, schedule: Q04DX003 (ip), vehicle: saline with Tween-80.
Setting [6] is: endpoint: mean survival time, dose: 400.0 mg/kg/injection, schedule: Q04DX003 (ip), vehicle: saline with Tween-80.
The mark [7] stands for this setting: endpoint: median survival time, dose: 25.0 mg/kg/injection, schedule: Q01DX009 (ip), vehicle: saline with Tween-80.
Where [8] appears, read: endpoint: median survival time, dose: 50.0 mg/kg/injection, schedule: Q01DX009 (ip), vehicle: saline with Tween-80.
Setting [9] is: endpoint: median survival time, dose: 100.0 mg/kg/injection, schedule: Q01DX009 (ip), vehicle: saline with Tween-80.
Setting [10] is: endpoint: median survival time, dose: 200.0 mg/kg/injection, schedule: Q01DX009 (ip), vehicle: saline with Tween-80.
Setting [11] is: endpoint: mean survival time, dose: 100.0 mg/kg/injection, schedule: Q01DX001 (ip), vehicle: saline.
Setting [12] is: endpoint: mean survival time, dose: 200.0 mg/kg/injection, schedule: Q01DX001 (ip), vehicle: saline.
[13] abbreviates: endpoint: mean survival time, dose: 400.0 mg/kg/injection, schedule: Q01DX001 (ip), vehicle: saline.
Where [14] appears, read: endpoint: mean survival time, dose: 400.0 mg/kg/injection, schedule: Q01DX009 (ip), vehicle: saline with Tween-80.

The structures appear in SMILES notation. “And” between values parts separate entries of the source, which are not always exact repeats. Equal values may be shown once. Inconclusive results and toxic doses are left out.

Take `Clc1ccc2nnnn2n1`: the T/C (endpoint: mean survival time, dose: 12.5 mg/kg/injection, schedule: Q01DX009 (ip), vehicle: saline with Tween-80) was 105 % of control; the T/C (endpoint: mean survival time, dose: 25.0 mg/kg/injection, schedule: Q01DX009 (ip), vehicle: saline with Tween-80) is 113 % of control and 114 % of control; the T/C under setting [1] was 96 % of control; the T/C (endpoint: mean survival time, dose: 31.75 mg/kg/injection, schedule: Q04DX003 (ip), vehicle: saline with Tween-80) was 106 % of control; the T/C (endpoint: mean survival time, dose: 50.0 mg/kg/injection, schedule: Q01DX009 (ip), vehicle: saline with Tween-80) is 100 % of control and 110 % of control; the T/C (endpoint: mean survival time, dose: 50.0 mg/kg/injection, schedule: Q04DX003 (ip), vehicle: saline with Tween-80) is 100 % of control. Further, the T/C by setting is: (endpoint: mean survival time, dose: 62.5 mg/kg/injection, schedule: Q04DX003 (ip), vehicle: saline with Tween-80) 103 % of control; under setting [2], 114 % of control and 122 % of control; under setting [3], 107 % of control; (endpoint: mean survival time, dose: 125.0 mg/kg/injection, schedule: Q04DX003 (ip), vehicle: saline with Tween-80) 103 % of control; under setting [4], 100 % of control; under setting [5], 105 % of control. Moreover, the T/C runs as follows: (endpoint: mean survival time, dose: 250.0 mg/kg/injection, schedule: Q04DX003 (ip), vehicle: saline with Tween-80) 105 % of control; under setting [6], 108 % of control; under setting [7], 102 % of control and 103 % of control; (endpoint: median survival time, dose: 25.0 mg/kg/injection, schedule: Q04DX003 (ip), vehicle: saline with Tween-80) 114 % of control; under setting [8], 113 % of control and 108 % of control; (endpoint: median survival time, dose: 50.0 mg/kg/injection, schedule: Q04DX003 (ip), vehicle: saline with Tween-80) 112 % of control. The T/C is 118 % of control under setting [9]; 113 % of control (endpoint: median survival time, dose: 100.0 mg/kg/injection, schedule: Q04DX003 (ip), vehicle: saline with Tween-80); 117 % of control and 108 % of control under setting [10]; 110 % of control (endpoint: median survival time, dose: 200.0 mg/kg/injection, schedule: Q04DX003 (ip), vehicle: saline with Tween-80); 118 % of control (endpoint: median survival time, dose: 400.0 mg/kg/injection, schedule: Q04DX003 (ip), vehicle: saline with Tween-80).
Regarding `CC(=O)N(Cc1ccccn1)N=O`, the T/C is, setting by setting: (endpoint: mean survival time, dose: 75.0 mg/kg/injection, schedule: Q01DX001 (ip), vehicle: water) 112 % of control; (endpoint: mean survival time, dose: 150.0 mg/kg/injection, schedule: Q01DX001 (ip), vehicle: water) 122 % of control.
With `CCCN(CCC)S(=O)(=O)c1ccc(NC(=O)OC(c2ccccc2)c2ccccc2)cc1`, the T/C under setting [11] was 104 % of control, the T/C under setting [12] is 95 % of control and the T/C under setting [13] was 93 % of control.
As to `Cc1cccc(Cl)c1NC(=O)Nc1cc(Cl)ccc1Oc1c(Cl)cc(Cl)cc1S(=O)(=O)O`, the T/C was 90 % of control under setting [2] and 90 % of control under setting [4].
With `BrC[P+](CBr)(CBr)CBr`, the T/C is 98 % of control under setting [7]; 102 % of control under setting [8]; 102 % of control under setting [9]; 109 % of control under setting [10]; 96 % of control (endpoint: median survival time, dose: 400.0 mg/kg/injection, schedule: Q01DX009 (ip), vehicle: saline with Tween-80).
Turning to `O=C(CCl)NC12Nc3ccccc3C1(Cc1ccccc1)CN(C1CCCCC1)C2=O` (stereo unspecified), the T/C is, setting by setting: (endpoint: mean survival time, dose: 50.0 mg/kg/injection, schedule: Q04DX002 (ip), vehicle: saline with Tween-80) 95 % of control; (endpoint: mean survival time, dose: 100.0 mg/kg/injection, schedule: Q01DX001 (ip), vehicle: saline with Tween-80) 100 % of control; (endpoint: mean survival time, dose: 200.0 mg/kg/injection, schedule: Q01DX001 (ip), vehicle: saline with Tween-80) 86 % of control; (endpoint: mean survival time, dose: 200.0 mg/kg/injection, schedule: Q04DX002 (ip), vehicle: saline with Tween-80) 89 % of control.
For `C=C1CC2(OC1=O)C(=O)N(C)c1ccc(I)cc12` (stereo unspecified), the T/C is 100 % of control and 104 % of control (endpoint: mean survival time, dose: 6.25 mg/kg/injection, schedule: Q01DX009 (ip), vehicle: saline); 100 % of control and 112 % of control (endpoint: mean survival time, dose: 12.5 mg/kg/injection, schedule: Q01DX009 (ip), vehicle: saline); 117 % of control and 102 % of control (endpoint: mean survival time, dose: 25.0 mg/kg/injection, schedule: Q01DX009 (ip), vehicle: saline); 105 % of control (endpoint: mean survival time, dose: 50.0 mg/kg/injection, schedule: Q01DX009 (ip), vehicle: saline).
For `COc1cc(C=Nc2ccc(-c3nc(C)sc3C)cc2)ccc1N(CCCl)CCCl`, the T/C is 155 % of control (endpoint: mean survival time, dose: 25.0 mg/kg/injection, schedule: Q01DX001 (ip), vehicle: carboxymethylcellulose (CMC)) and 97 % of control (endpoint: mean survival time, dose: 50.0 mg/kg/injection, schedule: Q01DX001 (ip), vehicle: carboxymethylcellulose (CMC)).
With `CC(=O)Nc1nc(Br)c2ccccc2c1-c1ccc(N(CCOS(=O)(=O)c2ccc(C)cc2)CCOS(=O)(=O)c2ccc(C)cc2)cc1`, the T/C by setting is: (endpoint: mean survival time, dose: 12.5 mg/kg/injection, schedule: Q04DX003 (ip), vehicle: DMSO) 98 % of control; (endpoint: mean survival time, dose: 25.0 mg/kg/injection, schedule: Q04DX003 (ip), vehicle: DMSO) 102 % of control; (endpoint: mean survival time, dose: 50.0 mg/kg/injection, schedule: Q04DX003 (ip), vehicle: DMSO) 102 % of control; (endpoint: mean survival time, dose: 100.0 mg/kg/injection, schedule: Q04DX003 (ip), vehicle: DMSO) 105 % of control.
For the molecule `O=C(O)C1CCCCC1C(=O)O.[NH-]C1CCC1.[NH2-].[Pt+2]` (stereo unspecified), the T/C by setting is: (endpoint: median survival time, dose: 3.12 mg/kg/injection, schedule: Q04DX003 (ip), vehicle: distilled water + Tween-80) 107 % of control; (endpoint: median survival time, dose: 6.25 mg/kg/injection, schedule: Q04DX003 (ip), vehicle: distilled water + Tween-80) 102 % of control; (endpoint: median survival time, dose: 12.5 mg/kg/injection, schedule: Q04DX003 (ip), vehicle: distilled water + Tween-80) 106 % of control; (endpoint: median survival time, dose: 25.0 mg/kg/injection, schedule: Q04DX003 (ip), vehicle: distilled water + Tween-80) 102 % of control; (endpoint: median survival time, dose: 50.0 mg/kg/injection, schedule: Q04DX003 (ip), vehicle: distilled water + Tween-80) 103 % of control.
Turning to `Cc1c(Cl)cc(Cl)c(N)c1Cl`, the T/C under setting [2] is 93 % of control, the T/C under setting [4] was 97 % of control and the T/C under setting [14] was 97 % of control.
For the molecule `CCOC(=O)C(O)(C(=O)OCC)c1ccc(C)cc1`, the T/C by setting is: under setting [2], 97 % of control; under setting [3], 102 % of control; under setting [4], 97 % of control; under setting [5], 100 % of control; under setting [14], 97 % of control; under setting [6], 100 % of control.
On to `O=C1C(Cl)=CC(=NS(=O)(=O)c2ccccc2)C=C1Cl`, for which the T/C reads like this: (endpoint: mean survival time, dose: 6.25 mg/kg/injection, schedule: Q04DX003 (ip), vehicle: saline with Tween-80) 100 % of control; (endpoint: mean survival time, dose: 12.5 mg/kg/injection, schedule: Q04DX003 (ip), vehicle: saline with Tween-80) 94 % of control; under setting [1], 103 % of control.
`CC(=O)Nc1sc2c(c1C#N)CCCC2`: the T/C reads like this: under setting [3], 93 % of control; under setting [5], 93 % of control; under setting [6], 101 % of control.
In the case of `NS(=O)(=O)c1cc2c(cc1Cl)NCNS2(=O)=O`, the T/C by setting is: under setting [2], 98 % of control; under setting [4], 98 % of control; under setting [14], 96 % of control.
For the molecule `CC(=O)c1cc(O)ccc1O`, the T/C by setting is: under setting [11], 101 % of control; under setting [12], 98 % of control; under setting [13], 98 % of control.
Regarding `CC(=O)NC1Cn2c3c(c(COC(N)=O)c2C1O)C(=O)C(Nc1ccccc1)=C(C)C3=O` (stereo unspecified), the T/C (endpoint: mean survival time, dose: 2.08 mg/kg/injection, schedule: Q01DX001 (ip), vehicle: carboxymethylcellulose (CMC)) was 86 % of control; the T/C (endpoint: mean survival time, dose: 3.1 mg/kg/injection, schedule: Q01DX001 (ip), vehicle: carboxymethylcellulose (CMC)) is 98 % of control; the T/C (endpoint: mean survival time, dose: 4.7 mg/kg/injection, schedule: Q01DX001 (ip), vehicle: carboxymethylcellulose (CMC)) was 93 % of control.
For `Nc1ccc(NC(=O)Nc2ccccc2)cc1`, the T/C runs as follows: (endpoint: mean survival time, dose: 100.0 mg/kg/injection, schedule: Q01DX001 (ip), vehicle: Klucel (hydroxypropylcellulose) (HPC)) 88 % of control; (endpoint: mean survival time, dose: 200.0 mg/kg/injection, schedule: Q01DX001 (ip), vehicle: Klucel (hydroxypropylcellulose) (HPC)) 96 % of control; (endpoint: mean survival time, dose: 400.0 mg/kg/injection, schedule: Q01DX001 (ip), vehicle: Klucel (hydroxypropylcellulose) (HPC)) 96 % of control.
